From patent US11939334B2, “Substituted pyrimido[4,5-b][1,4]diazepines as PLK1 degradation inducers” (UPPTHERA, INC., priority 2021, dated 2024)

What was measured:
[1] = system: H526 cell line; assay: Cell viability assay for H526 cell line; assay type: cell-based; conditions: Homo sapiens, NCI-H526, 120 h; H526 cells, 5 days, EZ-Cytox, 0.46-3000 nM
Experimental: 3. Cell Viability Assay for H526 Cell Line
(1) Culture of NCI-H526 Cell Line
(2) Treatment of Compounds of the Present Invention and Method of Cell Viability Assay
After treating the compound to each well to make the total volume of 200 μL, it was cultured in a CO2 incubator (Thermo Fisher Science, Cat. No. 4111) for 5 days.
The absorbance of the completely cultured sample was measured by setting the wavelength of a plate reader (BMG Labtech, CLARIOstar Plus) to […], and was measured after shaking for 3 minutes in a plate reader before measurement.
In Table 3, Activity represents IC50 value of each Exemplary Compound treatment group to H526 cell line (A: <30 nM, B: <50 nM, C: <100 nM, D: <200 nM, E: <400 nM).

[2] = target: T1, PLK1 (Homo sapiens, UniProt P53350); assay: Luciferase assay for PLK1 in HeLa LgBit (Plk1-HiBit KI) cell line; assay type: cell-based; conditions: 300 nM compound, luminescence after 9 hours
T1 construct: endogenous in cells; host or cells: HeLa cells stably expressing LgBit, with CRISPR/Cas9 knock-in of HiBit at the endogenous PLK1 locus
T1 sequence (P53350 whole entry): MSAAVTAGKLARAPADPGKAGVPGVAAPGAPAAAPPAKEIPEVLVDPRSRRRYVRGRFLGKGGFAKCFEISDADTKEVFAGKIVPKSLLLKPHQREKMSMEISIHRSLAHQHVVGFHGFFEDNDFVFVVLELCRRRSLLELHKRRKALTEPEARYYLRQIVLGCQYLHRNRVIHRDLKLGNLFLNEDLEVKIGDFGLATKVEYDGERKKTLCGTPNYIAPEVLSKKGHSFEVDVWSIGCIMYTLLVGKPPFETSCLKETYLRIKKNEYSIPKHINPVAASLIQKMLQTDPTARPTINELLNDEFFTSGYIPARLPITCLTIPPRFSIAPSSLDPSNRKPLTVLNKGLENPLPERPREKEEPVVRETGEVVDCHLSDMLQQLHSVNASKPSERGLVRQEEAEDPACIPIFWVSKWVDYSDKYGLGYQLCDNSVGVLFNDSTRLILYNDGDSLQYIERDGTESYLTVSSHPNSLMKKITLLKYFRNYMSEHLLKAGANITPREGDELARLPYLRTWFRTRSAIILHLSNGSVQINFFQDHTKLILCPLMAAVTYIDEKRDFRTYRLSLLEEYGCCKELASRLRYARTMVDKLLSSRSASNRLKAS
Experimental: 2. Luciferase Assay for PLK1
(1) Preparation and Culture of HeLa LgBit (Plk1-HiBit KI) Cell Line
A HeLa cell line in which the LgBit vector was transfected and expressed stably was prepared. Then, after constructing gRNA and donor to express the HiBit amino acid sequence behind the C-terminal of the Plk1 gene, which was inherent in the cell, it was inserted into the cell together with a vector capable of expressing CRISPR/Cas9. Only the cells in which the insertion was completed and knock-in had progressed were selected, sub-cultured and used.
(2) Treatment of Compounds of the Present Invention and Method of Luciferase Assay
In the case of HeLa LgBit (Plk1-HiBit KI), the compounds were treated after being released after thymidine block, and the process was as follows. Thymidine (Sigma-Aldrich Cat. No. T9250-5G) was completely dissolved in DW and used in the experiment. For thymidine block, the products were treated with 2 mM of thymidine and then incubated for 24 hours. For release and chemical treatment, the medium was suctioned and washed with 1×PBS. TrypLE™ was added and incubated in 37° C. CO2 incubator for 5 min. Cells neutralized by adding complete media were counted through a counter. For each well of a 96-well culture plate (SPL), 3.3×10^4 cells and a total medium volume of 150 μL were seeded and incubated in a CO2 incubator.
Each cell line was incubated in a CO2 incubator for 18 hours, and Endurazine was added to each well to make up 4% of the total volume. After adding the compound of the present invention in a 96-well white plate (SPL) to a concentration of 300 nM, the wavelength of the plate reader (BMG Labtech, CLARIOstar Plus) was set to […], and then the luminescence was tracked in real time.
The results are shown in Table 2 below and FIGS. 1 and 2.
In Table 2, Activity represents the ratio of the luminescence value of each Exemplary Compound treatment group to DMSO treatment group (+++: <0.3, ++ <0.6, + <0.7).

[3] = Cell viability assay for MRC-5 cell line; conditions: human
Experimental: Cell Viability Assay for MRC-5 Cell Line
(1) Culture of MRC-5 Cell Line
The MRC-5 cell line was purchased from Korea Cell Line Bank (KCLB), Seoul, Korea. Passage of cultured cells was maintained within P15.
6×10^3 cells were seeded for each well of a 96-well plate (SPL), and the cells were cultured in total volume of 150 μL.
Each well was mixed with a medium and treated, and the volume was set to 50 μL, so that the total volume of each well was 200 μL. Then, it was cultured in 37° C.
The following compounds were used as comparative examples, and the cell viability assay was performed in the same manner as in the compounds of Examples.
(3) Cytotoxicity Experiment
After treating EZ-Cytox (DOGEN, Cat. NO. EZ-3000, Lot. No. DLS2112) 20 μL in each well of completely cultured plate, it was cultured in 37° C. CO2 incubator for 4 hours. […] The data were converted into graphs using the Prism (ver. 9) program.

Compound | IC50 [1] | Activity: ratio of the luminescence value of each Exemplary Compound treatment group to DMSO treatment group [2] | IC50 at 5 days ([3]; MRC-5 cells (normal cell line)) | IC50 at 5 days [3]
COc1cc(C(=O)NN2CCC(F)(CN3CCN(c4ccc(C5CCC(=O)NC5=O)cc4F)CC3)CC2)ccc1Nc1ncc2c(n1)N(C(C)C)CC(F)(F)C(=O)N2C (stereo not drawn) [Compound 18, 4-((7,7-difluoro-9-isopropyl-5-methyl-6-oxo-6,7,8,9-tetrahydro-5H-pyrimido[4,5-b][1,4]diazepin-2-yl)amino)-N-(4-((4-(4-(2,6-dioxopiperidin-3-yl)-2-fluorophenyl)piperazin-1-yl)methyl)-4-fluoropiperidin-1-yl)-3-methoxybenzamide] | < 0.1 µM | ++ (++ <0.6) | > 10 µM | –
COc1cc(C(=O)NC2CC3(CCN(CC4CCN(c5ccc(C6CCC(=O)NC6=O)cc5F)CC4)CC3)C2)ncc1Nc1ncc2c(n1)N(C(C)C)CC(F)(F)C(=O)N2C (stereo not drawn) [Compound 22, 5-((7,7-difluoro-9-isopropyl-5-methyl-6-oxo-6,7,8,9-tetrahydro-5H-pyrimido[4,5-b][1,4]diazepin-2-yl)amino)-N-(7-((1-(4-(2,6-dioxopiperidin-3-yl)-2-fluorophenyl)piperidin-4-yl)methyl)-7-azaspiro[3.5]nonan-2-yl)-4-methoxypicolinamide] | < 0.05 µM | ++ (++ <0.6) | – | > 10 µM
COc1cc(C(=O)NN2CC3(CCN(CC4CCN(c5ccc(C6CCC(=O)NC6=O)cc5F)CC4)CC3)C2)ccc1Nc1ncc2c(n1)N(C(C)C)CC(F)(F)C(=O)N2C (stereo not drawn) [Compound 23, 4-((7,7-difluoro-9-isopropyl-5-methyl-6-oxo-6,7,8,9-tetrahydro-5H-pyrimido[4,5-b][1,4]diazepin-2-yl)amino)-N-(7-((1-(4-(2,6-dioxopiperidin-3-yl)-2-fluorophenyl)piperidin-4-yl)methyl)-2,7-diazaspiro[3.5]nonan-2-yl)-3-methoxybenzamide] | < 0.03 µM | +++ (+++: <0.3) | > 10 µM | –
COc1cc(C(=O)OC2CC3(CCN(CC4CCN(c5ccc(C6CCC(=O)NC6=O)cc5F)CC4)CC3)C2)ccc1Nc1ncc2c(n1)N(C(C)C)CC(F)(F)C(=O)N2C (stereo not drawn) [Compound 25, 7-((1-(4-(2,6-dioxopiperidin-3-yl)-2-fluorophenyl)piperidin-4-yl)methyl)-7-azaspiro[3.5]nonan-2-yl 4-((7,7-difluoro-9-isopropyl-5-methyl-6-oxo-6,7,8,9-tetrahydro-5H-pyrimido[4,5-b][1,4]diazepin-2-yl)amino)-3-methoxybenzoate] | < 0.2 µM | ++ (++ <0.6) | – | > 10 µM
COc1cc(C(=O)NN2CC3(CCC(CN4CCN(c5ccc(C6CCC(=O)NC6=O)cc5F)CC4)CC3)C2)ccc1Nc1ncc2c(n1)N(C(C)C)CC(F)(F)C(=O)N2C (stereo not drawn) [Compound 31, 4-((7,7-difluoro-9-isopropyl-5-methyl-6-oxo-6,7,8,9-tetrahydro-5H-pyrimido[4,5-b][1,4]diazepin-2-yl)amino)-N-(7-((4-(4-(2,6-dioxopiperidin-3-yl)-2-fluorophenyl)piperazin-1-yl)methyl)-2-azaspiro[3.5]nonan-2-yl)-3-methoxybenzamide] | < 0.03 µM | +++ (+++: <0.3) | – | > 10 µM
COc1cc(C(=O)NC2CC3(CCN(CC4CCN(c5ccc(C6CCC(=O)NC6=O)cc5F)C(C)C4)CC3)C2)ccc1Nc1ncc2c(n1)N(C(C)C)CC(F)(F)C(=O)N2C (stereo not drawn) [Compound 32, 4-((7,7-difluoro-9-isopropyl-5-methyl-6-oxo-6,7,8,9-tetrahydro-5H-pyrimido[4,5-b][1,4]diazepin-2-yl)amino)-N-(7-((1-(4-(2,6-dioxopiperidin-3-yl)-2-fluorophenyl)-2-methylpiperidin-4-yl)methyl)-7-azaspiro[3.5]nonan-2-yl)-3-methoxybenzamide] | < 0.03 µM | +++ (+++: <0.3) | – | > 10 µM
COc1cc(C(=O)NC2CC3(CCN(CC4(O)CCN(c5ccc(C6CCC(=O)NC6=O)cc5F)CC4)CC3)C2)ccc1Nc1ncc2c(n1)N(C(C)C)CC(F)(F)C(=O)N2C (stereo not drawn) [Compound 33, 4-((7,7-difluoro-9-isopropyl-5-methyl-6-oxo-6,7,8,9-tetrahydro-5H-pyrimido[4,5-b][1,4]diazepin-2-yl)amino)-N-(7-((1-(4-(2,6-dioxopiperidin-3-yl)-2-fluorophenyl)-4-hydroxypiperidin-4-yl)methyl)-7-azaspiro[3.5]nonan-2-yl)-3-methoxybenzamide] | < 0.03 µM | ++ (++ <0.6) | – | > 10 µM
COc1cc(C(=O)NC2CC3(CCN(CC4CCN(c5ccc(C6CCC(=O)NC6=O)cc5C)CC4)CC3)C2)ccc1Nc1ncc2c(n1)N(C(C)C)CC(F)(F)C(=O)N2C (stereo not drawn) [Compound 35, 4-((7,7-difluoro-9-isopropyl-5-methyl-6-oxo-6,7,8,9-tetrahydro-5H-pyrimido[4,5-b][1,4]diazepin-2-yl)amino)-N-(7-((1-(4-(2,6-dioxopiperidin-3-yl)-2-methylphenyl)piperidin-4-yl)methyl)-7-azaspiro[3.5]nonan-2-yl)-3-methoxybenzamide] | < 0.03 µM | ++ (++ <0.6) | – | > 10 µM
COc1cc(C(=O)NC2CC3(CCN(CC4CCN(c5ccc(C6CCC(=O)NC6=O)cc5OC)CC4)CC3)C2)ccc1Nc1ncc2c(n1)N(C(C)C)CC(F)(F)C(=O)N2C (stereo not drawn) [Compound 36, 4-((7,7-difluoro-9-isopropyl-5-methyl-6-oxo-6,7,8,9-tetrahydro-5H-pyrimido[4,5-b][1,4]diazepin-2-yl)amino)-N-(7-((1-(4-(2,6-dioxopiperidin-3-yl)-2-methoxyphenyl)piperidin-4-yl)methyl)-7-azaspiro[3.5]nonan-2-yl)-3-methoxybenzamide] | < 0.03 µM | ++ (++ <0.6) | – | > 10 µM
COc1cc(C(=O)NN2CCN(C3CCN(c4ccc(C5CCC(=O)NC5=O)cc4F)C3)CC2)ccc1Nc1ncc2c(n1)N(C(C)C)CC(F)(F)C(=O)N2C (stereo not drawn) [Compound 38, 4-((7,7-difluoro-9-isopropyl-5-methyl-6-oxo-6,7,8,9-tetrahydro-5H-pyrimido[4,5-b][1,4]diazepin-2-yl)amino)-N-(4-(1-(4-(2,6-dioxopiperidin-3-yl)-2-fluorophenyl)pyrrolidin-3-yl)piperazin-1-yl)-3-methoxybenzamide] | < 0.05 µM | +++ (+++: <0.3) | > 10 µM | –
COc1cc(C(=O)NN2CCC(CN3CCC4(CC3)CN(c3ccc(C5CCC(=O)NC5=O)cc3F)C4)CC2)ccc1Nc1ncc2c(n1)N(C(C)C)CC(F)(F)C(=O)N2C (stereo not drawn) [Compound 42, 4-((7,7-difluoro-9-isopropyl-5-methyl-6-oxo-6,7,8,9-tetrahydro-5H-pyrimido[4,5-b][1,4]diazepin-2-yl)amino)-N-(4-((2-(4-(2,6-dioxopiperidin-3-yl)-2-fluorophenyl)-2,7-diazaspiro[3.5]nonan-7-yl)methyl)piperidin-1-yl)-3-methoxybenzamide] | < 0.03 µM | ++ (++ <0.6) | > 10 µM | –
